Test results published in patent publication US9486430B2, “Treatment of neurodegenerative disease” (priority 2010, dated 2016).

Experiments:
[1] = mice; cited from earlier work
[2] = test system: patient with Parkinson's Disease; test: Tolerability of other drugs and supplements in the Parkinson's Disease patient
Source text: Patients on the anticoagulant warfarin are expected to have a reading between 2 and 3, with three being the least coagulated.

[3] = test system: patient with stage four idiopathic Parkinson's Disease; test: Observation of a stage four Parkinson's Disease patient on t-RES with SINEMET (Tremor Rating Scale, UPDRS); assay type: in vivo, human
Source text: (§1) As described in detail below, the parameters used to measure these findings were basic observations of speech, gait, overall function and tremor before and after administering t-RES over a period of months using the author's Tremor Rating Scale (TRS) in addition to the UPDRS (Fahn, et al., Recent Developments in Parkinson's Disease, 1989). […] The International Normalized Ratio is a measure of clotting speed in the blood used especially as an indicator of Warfarin levels in the blood in patients with Atrial Fibrillation who need reduced clotting probability, to prevent strokes and pulmonary embolisms—but not so reduced as to increase the chances of hemorrhage, especially from trauma. The INR in a normal person ranges from 0.8 to 1.2 in an A-Fib patient the INR should be maintained between 2.0 and 3.0 (Avery, et al., Clin. Pharmacol. Ther., 2011).
In a particular embodiment, the effect of t-RES on a patient with stage four idiopathic Parkinson's Disease was observed. The patient was followed closely for fourteen months while receiving t-RES. t-RES was administered daily and changes in speech, handwriting, gait, leg movement, and dyskinesias were observed. […] Handwriting samples were taken before and after taking t-RES.
Starting dose of ½ pill 3 times/day SINEMET® 25/100 and 4 pills/day SINEMET® CR 25/100. Doses were given every four hours starting at 7 am.
Eleven months into the study, patient was taking 500 mg t-RES/day, considered the lowest mega-dose, plus the added 100 mg general polyphenols which are mixed into each 125 mg t-RES capsule.
This was achieved using a scale devised by the inventor, with three states: tremor, no dyskinesia (T, ND=0); non-tremor, no dyskinesia (NT, ND=1); and dyskinesia, no tremor (D, NT=2). The patient's state was recorded every half hour from 7 am to 10 pm by the author and caregivers on all days practicable.
Daily numbers from the inventor's 0-2 Tremor Rating Scale (TRS) scale were then tallied and entered into the Unified Parkinson's Disease Rating Scale (UPDRS) for comparison.
The doses of t-RES, SINEMET® and other supplements were also noted, with adjustments being made as necessary. The results were then examined for overall changes observed when the t-RES dose was increased every few months as shown in FIG. 2.

patients = conditions: some patients; cited from earlier work
healthy volunteers = conditions: cited from earlier work; for adverse effects in healthy volunteers: up to 5 g (5000 mg per day)
[4] = carbidopa with levodopa; cited from earlier work
[5] = test system: monoamine oxidase A (MAO-A), MAO-B; conditions: rat brain; cited from earlier work
[6] = International Normalized Ratio (INR) anticoagulation test in the Parkinson's Disease patient; assay type: in vivo, human; conditions: for INR: ref. range 0.8-1.2
Source text: as §1

[7] = test system: amyloid plaques in mouse brain; conditions: dietary supplementation, transgenic model of Alzheimer's Disease; cited from earlier work
[8] = Kidney function test in the Parkinson's Disease patient; assay type: in vivo, human; conditions: patient on t-RES; data not shown

Cc1ccc(NC(=O)c2ccc(CN3CCN(C)CC3)cc2)cc1Nc1nccc(-c2cccnc2)n1 [imatinib]
crossing of the blood-brain barrier [1]: not able to cross the blood-brain barrier

C#CCN[C@@H]1CCc2ccccc21 [rasagiline]
tolerability in the patient ([2]; human, in vivo): neither was tolerated

N[C@@H](CCC(=O)N[C@@H](CS)C(=O)NCC(=O)O)C(=O)O [glutathione]
symptoms on reducing glutathione ([3]; glutathione reduced while on t-RES and SINEMET): worsening of symptoms

C#CCN(C)[C@H](C)Cc1ccccc1 [selegiline]
tolerability in the patient ([2]; therapy in conjunction with SINEMET): neither was tolerated

C#CCN(C)[C@H](C)Cc1ccccc1 [deprenyl]
extension of lifespan (patients): up to 10 years

Oc1ccc(C=Cc2cc(O)cc(O)c2)cc1 [resveratrol, 3,5,4′-trihydroxy-stilbene]
reported adverse events (healthy volunteers; 2000 mg twice daily, two-week study, eight healthy adults): minor diarrhea | adverse effects in healthy volunteers (healthy volunteers): no adverse effects

C[C@@](Cc1ccc(O)c(O)c1)(NN)C(=O)O [Carbidopa, carbidopa]
reduction of the amount of levodopa required to produce a given response [4]: about 75%

Oc1ccc(/C=C/c2cc(O)cc(O)c2)cc1 [t-RES, 3,5,4′-trihydroxy-trans-stilbene]
inhibition of MAO-A compared with MAO-B [5]: slightly more than MAO-B | INR ([6]; 250 mg t-Res + 81 mg/day aspirin, Oct. 26, 2010): 1 | INR score (blood coagulation) ([6]; 500 mg followed by 625 mg t-RES, eight and 12 months into the study, normal range 0.8-1.2): 1 | INR ([6]; 500 mg t-Res, Mar. 14, 2011): 1.0 | INR ([6]; 625 mg t-Res, Jul. 6, 2011): 1.0 | amyloid plaques in mouse brain [7]: reduce the number of amyloid plaques | adverse effects in healthy volunteers (healthy volunteers): no adverse effects | Kidney function [8]: within the normal range | Total Levodopa per day ([3]; 14 months post t-RES (625 mg/day), September 2011, 550 mg before t-RES): day = 500 mg max | tremors and dyskinesias, share of the day ([3]; UPDRS ratings, t-RES plus SINEMET, FIG. 2, rarely over): ≤ 25 % of the day | patient's "on" time, share of the day ([3]; UPDRS-based, t-RES plus SINEMET, FIG. 2): 75 % of the day | dyskinesias on t-RES dose increase ([3]; each increase of t-RES by 125 mg/day, with SINEMET, FIG. 2, FIG. 3): dyskinesias increased | need for SINEMET per day after starting t-RES ([3]; first few days of t-RES, from 1½ tablets per day (150 mg levodopa) to one tablet per day): 100 mg levodopa | cognition and speech ([3]; following first administration of t-RES (125 mg capsule)): overnight improvement in cognition and speech | hallucinations ([3]; soon after beginning t-RES): completely eliminated on most days
